Here are results for five compounds from patent US5747507A, “Cardio-protective agent” (priority 1992, dated 1998).

Values joined by “and” are separate entries in the source; they are usually repeats but may differ in a detail not shown here. Equal values may be shown once.

Data set [1] deals with endothelin-induced myocardial infarction. The data set is described as follows: Inhibitory effect on endothelin-induced myocardial infarction: T-wave elevation in rabbit electrocardiogram. The data set is classed as in vivo, Japanese White rabbits. Conditions: 3.0 mg/kg oral; for T-wave elevation: 15 min before endothelin 1.2 nmol/kg i.v., 3 min after endothelin, mean values. An excerpt:
(§1) Inhibitory effect on endothelin-induced myocardial infarction
(§2) The inhibitory effect of the cardio-protective agent of the present invention on endothelin-induced myocardial infarction was examined in the following manner.
(§3) The animals used in the examination were Japanese White rabbits each weighing 2.0 to 3.1 kg, which were divided into two groups, i.e., a first group consisting of 40 rabbits and a second group consisting of 13 rabbits. The hydrochloride of the above-mentioned compound (1) was dissolved in distilled water, and the resultant solution was orally administered to each of 10 rabbits of the first group in an amount of 3.0 mg/kg (body weight). In the same manner as mentioned above, diltiazem and nicorandil were individually, orally administered to each of another 10 rabbits of the first group. As a control, distilled water was orally administered to each of the remaining 10 rabbits of the first group.
(§4) Fifteen minutes after the administration, 1.2 nmol/kg (body weight) of endothelin (manufactured and sold by Peptide Institute, Japan) was injected into the auricular vein of each of the above rabbits of the first and second groups, thereby inducing myocardial infarction. With respect to the rabbits of the first and second groups, the degree of myocardial infarction was evaluated by rabbit electrocardiogram and by measuring the activity of enzymes leaked into the rabbit plasma, respectively, as follows.
With respect to each of the rabbits of the first group, the rabbit electrocardiogram was taken just before and 3 minutes after the injection of endothelin, according to the standard limb lead II induction method [Ozawa, Training of Electrocardiogram, p. 24-32, 1984, Chugai Igaku Co., Ltd., Japan), and T-wave elevation was measured.

The next data set deals with vascular smooth muscle. Conditions: literature; cited from earlier work.
For data set [2] the following is noted: literature; cited from earlier work.
For data set [3], the system named is isolated hearts. The data set is described as follows: Inhibitory effect on myocardial cell injury caused by ischemia/reperfusion (1): coronary artery flow of isolated hearts (Langendorff method). Details: species or system male Wistar rats. Conditions: for Coronary flow change (% based on pre-ischemic values): 40 min after initiation of reperfusion; for Lowering of coronary artery flow (in words): ischemia/reperfusion; for Bradycardia and cardiac arrest (in words): perfused isolated hearts. An excerpt:
Inhibitory effect on myocardial cell injury caused by ischemia/reperfusion (1)
(§5) Hearts excised from male Wistar rats (approximately six-week old) were perfused with the Krebs-Heiseleit solution according to the Langendorff method [Tamura and Fujii, "Yakurigaku Jikkenho (Experimental Methods in Pharmacology)", pp. 176-177, 1990, published by Kyodo-isho Publishing Co., Ltd., Japan; and Yamada, Kubota et al., "Yakurigaku Jisshu (Pharmacological Practice)", pp. 79-81, 1979, published by Kodansha Scientific Co., Ltd., Japan]. After the isolated hearts were allowed to stabilize, the flowing of the perfusate was temporarily stopped, and the isolated hearts were allowed to be in an ischemic state for 40 minutes. Subsequently, reperfusion was conducted for 40 minutes.
Hydrochlorides of compounds (1) and (83) mentioned above were individually dissolved in distilled water, and the resultant aqueous solutions of the hydrochlorides of compounds (1) and (83) were individually introduced to and perfused in a perfusion circuit with the reperfusate for 5 minutes simultaneously with the initiation of reperfusion. In the same manner as mentioned above, diltiazem as a comparative agent and physiological saline as a control were individually perfused with the reperfusate. The perfusion conditions of the aqueous solutions of the hydrochlorides of compounds (1) and (83), diltiazem and physiological saline are shown in Table 3.
With respect to each of the test agents, the coronary artery flow was measured just before the ischemia, i.e., the stopping of the perfusion, and 40 minutes after the initiation of reperfusion using an electromagnetic flow probe FF-030P (manufactured and sold by Nippon Koden Corp., Japan).

Data set [4] deals with isolated hearts. The data set is described as follows: Inhibitory effect on myocardial cell injury caused by ischemia/reperfusion (2): leaked lactate dehydrogenase activity, isolated hearts (Langendorff method). Details: species or system rats. Particulars: for Lactate dehydrogenase activity, before ischemia / Lactate dehydrogenase activity, 10 min after initiation of reperfusion: mean values; for Activities of the leaked enzymes (in words): lactate dehydrogenase and creatine kinase, ischemia/reperfusion.
Description: as §5
(§6) Inhibitory effect on myocardial cell injury caused by ischemia/reperfusion (2)
(§7) In the same manner as in Example 2, hearts excised from rats were perfused in the Krebs-Henseleit solution in accordance with the Langendorff method. After the isolated hearts were allowed to stabilize, the flowing of the perfusate was temporarily stopped, and the isolated hearts were allowed to be in an ischemic state for 20 minutes. Subsequently, reperfusion was conducted for 60 minutes. As activities of the leaked enzymes, the lactate dehydrogenase activity and […] activity were examined with respect to each of the samples using an autoanalizer (Super Z 818, manufactured and sold by NITTEC Co., Ltd., Japan). The aqueous solutions of the hydrochlorides of compounds (1) and (83) were individually introduced to and perfused in a perfusion circuit with reperfusate simultaneously with the initiation of the reperfusion under the conditions as shown in Table 4. As a control, physiological saline was perfused with the reperfusate in the same manner as mentioned above. The above-mentionedactivities of the enzymes leaked into the perfusate and reperfusate were, respectively, measured before the ischemia and 10 minutes after the initiation of reperfusion.

Data set [5] concerns isolated hearts. Briefly: Inhibitory effect on myocardial cell injury caused by ischemia/reperfusion (2): leaked creatine kinase activity, isolated hearts (Langendorff method). Particulars: mean values. Further details: species or system rats.
Description: as §5, §6, §7

In the next data set the test system is Japanese White rabbits. The data set is described as follows: Toxicity in oral administration. Type of data set: in vivo. Conditions: 30 mg/kg (body weight). An excerpt: Toxity in oral administration
The conditions of data set [6]: literature; cited from earlier work. The source holds these as a separate data set.
For data set [7] the following is noted: literature; cited from earlier work. The source holds these as a separate data set.
Data set [8] concerns endothelin-induced myocardial infarction. The data set is described as follows: Inhibitory effect on endothelin-induced myocardial infarction: lactate dehydrogenase activity in rabbit plasma. Type of data set: in vivo, Japanese White rabbits.
Description: as §1, §2, §3
(§8) With respect to the rabbits of the second group, the above-prepared aqueous solution of the hydrochloride of compound (1) was orally administered to each of 7 rabbits in the same manner as mentioned above, and as a control, distilled water was orally administered to each of the remaining 6 rabbits.
as §4
(§9) With respect to each of the rabbits of the second group, the blood was collected using a heparinized syringe just before and thirty minutes after the intravenous administration of endothelin. The collected blood was subjected to centrifugation using a cooling centrifuge (CR20B2, manufactured and sold by Hitachi Corp., Japan), to thereby separate plasma. […]

For data set [9] the test system is unchanged. The data set is described as follows: Inhibitory effect on endothelin-induced myocardial infarction: creatine kinase activity in rabbit plasma. The data set is classed as in vivo, Japanese White rabbits.
Description: as §1, §2, §3, §8, §4, §9

The next data set concerns heart. Conditions: in vivo; cited from earlier work.
[10] abbreviates: plasma, 3.0 mg/kg oral, 30 min after i.v. endothelin, mean values.
Setting [11] is: plasma, 3.0 mg/kg oral, just before i.v. endothelin, mean values.

In the case of `O=C(NCCO[N+](=O)[O-])c1cccnc1` [Nicorandil], in data set [1], the “Inhibition of T-wave elevation (in words)” value (from here on “Inhibition”) is on record as “T-wave elevation was not inhibited” and the T-wave elevation amounted to 0.58 mV.

As to `N=C(N)NCCNS(=O)(=O)c1cccc2cnccc12` [(104), N-(2-guanidinoethyl)-5-isoquinolinesulfonamide], the “Effect on vascular smooth muscle” value with vascular smooth muscle is on record as “relaxing effect on vascular smooth muscle”. Moreover, the “Effect on blood flow” value in [2] is given as “increasing effect on blood flow”.

As to `O=S(=O)(c1cccc2c(O)nccc12)N1CCCNCC1` [compound (83), 1-(1-hydroxy-5-isoquinolinesulfonyl)homopiperazine], the “Coronary flow change (% based on pre-ischemic values)” value with isolated hearts [3] (1 × 10^-5 M) is 58%. For the same compound, the “Coronary flow change (% based on pre-ischemic values)” value with isolated hearts [3] (3 × 10^-5 M) is 61%. Also, in the data set with isolated hearts [3], the “Lowering of coronary artery flow (in words)” value was “greatly inhibited”; the “Bradycardia and cardiac arrest (in words)” value is “neither bradycardia nor cardiac arrest occurred”. For the same compound, the “Lactate dehydrogenase activity, before ischemia” value with isolated hearts [4] (10^-5 M group) stood at 1.2 IU/min. Moreover, the “Lactate dehydrogenase activity, 10 min after initiation of reperfusion” value with isolated hearts [4] (10^-5 M) turned out to be 487.0 IU/min. Also, the “Activities of the leaked enzymes (in words)” value in the data set on isolated hearts [4] was “greatly inhibited”. In addition, the “Creatine kinase activity, before ischemia” value in the data set with isolated hearts [5] (10^-5 M group) is 17.4 IU/min. Besides, the “Creatine kinase activity, 10 min after initiation of reperfusion” value with isolated hearts [5] (10^-5 M) is on record as 881.5 IU/min. In addition, the “Number of rabbits died/Number of rabbits tested” value in the data set on Japanese White rabbits is 0/5. The “Effect on vascular smooth muscle” value in the data set on vascular smooth muscle is reported as “relaxing effect on vascular smooth muscle”. For the same compound, the “Effect on blood flow” value in data set [2] is reported as “increasing effect on blood flow”. The Antihypertensive effect entry in data set [6] is on record as “antihypertensive effect”. Also, the Cerebral protective effect entry in [7] was “cerebral protective effect”.

Regarding `O=S(=O)(c1cccc2cnccc12)N1CCCNCC1` [compound (1), 1-(5-isoquinolinesulfonyl)homopiperazine], the “Inhibition” value in data set [1] is given as “can remarkably inhibit the T-wave elevation”. For the same compound, in [1], the T-wave elevation is 0.00 mV and 0 mV. In addition, the “Effect on lactate dehydrogenase activity in plasma (in words)” value in data set [8] (caused by i.v. endothelin) is “had an inhibitory effect”. Further, the “Lactate dehydrogenase activity, 30 min after administration” value in data set [8] (setting [10]) came out at 52.1 IU/1. In addition, the “Lactate dehydrogenase activity, just before administration” value in data set [8] (setting [11]) stood at 29.7 IU/1. Moreover, the “Effect on creatine kinase activity in plasma (in words)” value in [9] (caused by i.v. endothelin) was “had an inhibitory effect”. The “Creatine kinase activity, 30 min after administration” value in data set [9] (setting [10]) is 163.9 IU/1. Further, the “Creatine kinase activity, just before administration” value in data set [9] (setting [11]) was determined as 114.6 IU/1. Besides, in the data set with isolated hearts [3] (3 × 10^-6 M), the “Coronary flow change (% based on pre-ischemic values)” value is reported as 70%. Moreover, in the data set on isolated hearts [3], the “Lowering of coronary artery flow (in words)” value is recorded as “greatly inhibited”. The “Bradycardia and cardiac arrest (in words)” value in the data set on isolated hearts [3] is reported as “neither bradycardia nor cardiac arrest occurred”. Also, the results for the “Lactate dehydrogenase activity, before ischemia” value in the data set on isolated hearts [4] (10^-5 M group) and in the data set with isolated hearts [4] (10^-6 M group) were 21.3 IU/min and 22.8 IU/min, respectively. Further, the “Lactate dehydrogenase activity, 10 min after initiation of reperfusion” value turned out to be 575.3 IU/min in the data set on isolated hearts [4] (10^-5 M) and 732.8 IU/min with isolated hearts [4] (10^-6 M). The “Activities of the leaked enzymes (in words)” value in the data set with isolated hearts [4] was “greatly inhibited”. For the same compound, the “Creatine kinase activity, before ischemia” value came out at 18.6 IU/min in the data set with isolated hearts [5] (10^-5 M group) and 26.6 IU/min with isolated hearts [5] (10^-6 M group). The “Creatine kinase activity, 10 min after initiation of reperfusion” value in the data set with isolated hearts [5] (10^-5 M) is listed as 901.5 IU/min; in the data set on isolated hearts [5] (10^-6 M), 1159.8 IU/min. Moreover, the “Effect on vascular smooth muscle” value in the data set with vascular smooth muscle is “relaxing effect on vascular smooth muscle”. For the same compound, the “Effect on blood flow” value in data set [2] is recorded as “increasing effect on blood flow”. The Antihypertensive effect entry in data set [6] is “antihypertensive effect”. In addition, the Cerebral protective effect entry in data set [7] is given as “cerebral protective effect”.

On to `COc1ccc([C@@H]2Sc3ccccc3N(CCN(C)C)C(=O)[C@@H]2OC(C)=O)cc1` [Diltiazem, reference compound], for which, in [1], the “Inhibition” value is listed as “T-wave elevation was not inhibited” and the T-wave elevation came to 0.46 mV. Besides, in the data set with isolated hearts [3] (1 × 10^-5 M), the “Bradycardia” value is “bradycardia” and the “Cardiac arrest” value is “cardiac arrest”. Besides, the “Coronary flow change (% based on pre-ischemic values)” value in the data set with isolated hearts [3] (3 × 10^-6 M) is on record as 54%. Moreover, the “Bradycardia and cardiac arrest (in words)” value with isolated hearts [3] was “bradycardia and cardiac arrest occurred”. Moreover, in the data set on heart, the “Side effect on atrioventricular conducting system” value was “atrioventricular conducting system of the patient is depressed” and the “Side effect on heart rate” value is “decrease in heart rate”.
